The source of these data is the supplement of paper PMC10627819.

Assay in all cases: Bliss interaction score (quartile over a dose matrix) (fitness difference); higher = more antagonism (negative = synergy)
The subject of assay [1] is S. pneumoniae D39V. The method, boiled down: (§1)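 The Bliss score is observed minus expected fitness under the product model, reported as quartiles over technical, biological and donor/recipient replicates. Fitness is the OD595 at entry into stationary phase divided by the plate's robust no-drug mean and capped at 1. Single-drug fitness was inferred from combination data.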

The subject of assay [2] is S. aureus Newman. The method, boiled down:
as §1

Assay [3] concerns S. aureus DSM 20231. In outline:
as §1

Assay [4] has as its system B. subtilis 168. The method, boiled down:
as §1
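Also: first quartile when negative (synergy) and third quartile when positive (antagonism).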

On to `Cc1ncc([N+](=O)[O-])n1CCO` [Metronidazole] + CC[C@H]1OC(=O)[C@H](C)C(=O)[C@H](C)[C@@H](O[C@@H]2O[C@H](C)C[C@H](N(C)C)[C@H]2O)[C@](C)(OC)C[C@@H](C)C(=O)[C@H](C)[C@H]2N(CCCCn3cnc(-c4cccnc4)c3)C(=O)O[C@]12C [Telithromycin], for which the Bliss interaction score in assay [1] was determined as 0.157; in assay [2], 0.0357; in assay [3] it was 0.0599; in assay [4], 0.0709.
Taken in the same sequence, the figures for `Cc1ncc([N+](=O)[O-])n1CCO` [Metronidazole] + CN[C@H](CC(C)C)C(=O)N[C@H]1C(=O)N[C@@H](CC(N)=O)C(=O)N[C@H]2C(=O)N[C@H]3C(=O)N[C@H](C(=O)N[C@H](C(=O)O)c4cc(O)cc(O)c4-c4cc3ccc4O)[C@H](O[C@H]3C[C@](C)(N)[C@@H](O)[C@H](C)O3)c3ccc(c(Cl)c3)Oc3cc2cc(c3O[C@@H]2O[C@H](CO)[C@@H](O)[C@H](O)[C@H]2O[C@H]2C[C@](C)(NCc3ccc(-c4ccc(Cl)cc4)cc3)[C@@H](O)[C@H](C)O2)Oc2ccc(cc2Cl)[C@H]1O [Oritavancin] were -0.0396, 0.0752, 0.0377 and -0.0222.
The like results for `Cc1ncc([N+](=O)[O-])n1CCO` [Metronidazole] + CO[C@@]12[C@H](COC(N)=O)C3=C(C(=O)C(C)=C(N)C3=O)N1C[C@@H]1N[C@@H]12 [MitomycinC] were, in that order, 0.0827, 0.0511, 0.0443 and 0.132.
Regarding `Cc1ncc([N+](=O)[O-])n1CCO` [Metronidazole] + Clc1ccc(COC(Cn2ccnc2)c2ccc(Cl)cc2Cl)c(Cl)c1 [Miconazole], the Bliss interaction score in assay [1] worked out at 0.0478; in assay [2], 0.0522; in assay [3] it was 0.0327; in assay [4], 0.0471.
The like results for `Cc1ncc([N+](=O)[O-])n1CCO` [Metronidazole] + Oc1cc(Cl)ccc1Oc1ccc(Cl)cc1Cl [Triclosan] were, in that order, 0.0696, 0.0457, 0.0778 and 0.0396.
Taken in the same sequence, the figures for `CC1(C)S[C@@H]2[C@H](NC(=O)Cc3ccccc3)C(=O)N2[C@H]1C(=O)O` [PenicillinG] + C/C(=C\C(=O)OCCCCCCCCC(=O)O)C[C@@H]1OC[C@H](C[C@@H]2O[C@H]2[C@@H](C)[C@H](C)O)[C@@H](O)[C@H]1O [Pseudomonic acid] were 0.0842, 0.0196, 0.0362 and 0.0659.
Taken in the same sequence, the figures for `CC1(C)S[C@@H]2[C@H](NC(=O)Cc3ccccc3)C(=O)N2[C@H]1C(=O)O` [PenicillinG] + CC1=C\[C@@H](O)CC(=O)Cc2nc(co2)C(=O)N2CCC=C2C(=O)O[C@H](C(C)C)[C@H](C)/C=C/C(=O)NC\C=C\1 [Virginiamycin M1] were 0.099, 0.0409, -0.0526 and 0.0479.
Take `CC1(C)S[C@@H]2[C@H](NC(=O)Cc3ccccc3)C(=O)N2[C@H]1C(=O)O` [PenicillinG] + CCCCCCCCCC(=O)N[C@@H]1[C@H]([C@@H]([C@H](O[C@H]1OC2=C3C=C4C=C2OC5=C(C=C(C=C5)[C@H]([C@H]6C(=O)N[C@@H](C7=C(C(=CC(=C7)O)OC8[C@H]([C@H]([C@@H]([C@H](O8)CO)O)O)O)C9=C(C=CC(=C9)[C@H](C(=O)N6)NC(=O)[C@@H]4NC(=O)[C@@H]1C2=CC(=CC(=C2)OC2=C(C=CC(=C2)[C@H](C(=O)N[C@H](CC2=CC(=C(O3)C=C2)Cl)C(=O)N1)N)O)O)O)C(=O)O)O[C@H]1[C@@H]([C@H]([C@@H]([C@H](O1)CO)O)O)NC(=O)C)Cl)CO)O)O [Teicoplanin]: the Bliss interaction score is -0.0521 in assay [1] (main component drawn), 0.0744 in assay [2] (main component drawn), -0.0396 in assay [3] (main component drawn) and -0.176 in assay [4] (main component drawn).
For the compound `CC1(C)S[C@@H]2[C@H](NC(=O)Cc3ccccc3)C(=O)N2[C@H]1C(=O)O` [PenicillinG] + CCN(CC)CCOC(=O)c1ccc(N)cc1 [Procaine], the Bliss interaction score was 0.0857 in assay [1], 0.0542 in assay [2], -0.0657 in assay [3] and 0.0367 in assay [4].
The like results for `CC1(C)S[C@@H]2[C@H](NC(=O)Cc3ccccc3)C(=O)N2[C@H]1C(=O)O` [PenicillinG] + CC[C@H]1OC(=O)[C@H](C)C(=O)[C@H](C)[C@@H](O[C@@H]2O[C@H](C)C[C@H](N(C)C)[C@H]2O)[C@](C)(OC)C[C@@H](C)C(=O)[C@H](C)[C@H]2N(CCCCn3cnc(-c4cccnc4)c3)C(=O)O[C@]12C [Telithromycin] were, in that order, 0.0452, -0.0465, 0.0277 and 0.0511.
For the compound `CC1(C)S[C@@H]2[C@H](NC(=O)Cc3ccccc3)C(=O)N2[C@H]1C(=O)O` [PenicillinG] + CN1C2=CC=CC=C2N=C3C1=CC=CC3=O [Pyocyanin], the Bliss interaction score is 0.144 in assay [1], 0.0699 in assay [2], 0.0541 in assay [3] and -0.0227 in assay [4].
For the compound `CC1(C)S[C@@H]2[C@H](NC(=O)Cc3ccccc3)C(=O)N2[C@H]1C(=O)O` [PenicillinG] + CN(C)c1cc(NC(=O)CNC(C)(C)C)c(O)c2c1C[C@H]1C[C@H]3[C@H](N(C)C)C(O)=C(C(N)=O)C(=O)[C@@]3(O)C(O)=C1C2=O [Tigecycline], the Bliss interaction score in assay [1] was -0.103; in assay [2] it was 0.0515; in assay [3], -0.0277; in assay [4], 0.0408.
Taken in the same sequence, the figures for `CC1(C)S[C@@H]2[C@H](NC(=O)Cc3ccccc3)C(=O)N2[C@H]1C(=O)O` [PenicillinG] + CN(N=O)C(=O)N[C@@H](C=O)[C@@H](O)[C@H](O)[C@H](O)CO [Streptozotocin] were 0.0394, -0.0606, -0.0545 and 0.0513.
Consider `CC1(C)S[C@@H]2[C@H](NC(=O)Cc3ccccc3)C(=O)N2[C@H]1C(=O)O` [PenicillinG] + CN[C@@H]1[C@H](O)[C@H](NC)[C@H]2O[C@@]3(O)C(=O)C[C@@H](C)O[C@H]3O[C@@H]2[C@H]1O [Spectinomycin], for which the Bliss interaction score in assay [1] is 0.0325; in assay [2], -0.0496; in assay [3] it was -0.0365; in assay [4], 0.0272.
